The values below are quoted from earlier work in patent US20190022221A1 (priority 2015, published 2019).

The subject of one data set is Acinetobacter baumannii. The note with it: 1.1-millimeter-thick soft agar layer, light 100 milliWatts per square centimeter.
For data set [1] the following is noted: in vivo.
The test system of data set [2] is Zaire Ebola virus (ZEBOV).
Data set [3] concerns Venezuelan equine encephalitis virus (VEEV).

Consider [Mn(PaPy3)(NO)](ClO4), for which, in the data set with Acinetobacter baumannii, the “clearance of bacteria from treated areas of the plates” value is “effectively cleared the bacteria”.
With `CC(=O)[O-].CC(=O)[O-].CCc1c(CC)c2cc3nc(cnc4cc(OCCOCCOCCOC)c(OCCOCCOCCOC)cc4ncc4nc(cc1[n-]2)C(CCCO)=C4C)C(C)=C3CCCO.O.[Lu+3]` [Lutetium texaphryin, Motexafin lutetium], in data set [1], the “duration of skin photosensitivity” value was 24 to 48 h.
For the molecule `Oc1cccc(-c2c3nc(c(-c4cccc(O)c4)c4ccc([nH]4)c(-c4cccc(O)c4)c4nc(c(-c5cccc(O)c5)c5ccc2[nH]5)CC4)C=C3)c1` [Foscan, Tetra (m-hydroxyphenyl) chlorin], the “duration of skin photosensitivity” value in data set [1] was “approximately 2 weeks”.
`[N-]=[N+]=Nc1cccc2c(I)cccc12` [INA, 1,5-iodonaphthyl azide]: the “infectivity of ZEBOV after INA treatment” value in data set [2] is “completely noninfectious”. Besides, the “inactivation of virulent strain of VEEV” value in data set [3] was “efficiently inactivate”.
